According to patent US20050154042A1, “N-alkyl pyrroles as HMG-CoA reductase inhibitors” (priority 2003, published 2005):
Counter-ions that a name gives are not always drawn.

Target: T1, HMGCoA (3-Hydroxy-3-methylglutaryl CoA) Reductase (Rattus norvegicus, UniProt P51639)
T1 construct: Male Charles River Sprague-Dawley rats were fed with 2.5% cholestyramine in rat chow diets for 5 days before sacrificing; from tissue; host or cells: liver microsomes of male Sprague-Dawley rats fed cholestyramine
T1 sequence (P51639 1-887): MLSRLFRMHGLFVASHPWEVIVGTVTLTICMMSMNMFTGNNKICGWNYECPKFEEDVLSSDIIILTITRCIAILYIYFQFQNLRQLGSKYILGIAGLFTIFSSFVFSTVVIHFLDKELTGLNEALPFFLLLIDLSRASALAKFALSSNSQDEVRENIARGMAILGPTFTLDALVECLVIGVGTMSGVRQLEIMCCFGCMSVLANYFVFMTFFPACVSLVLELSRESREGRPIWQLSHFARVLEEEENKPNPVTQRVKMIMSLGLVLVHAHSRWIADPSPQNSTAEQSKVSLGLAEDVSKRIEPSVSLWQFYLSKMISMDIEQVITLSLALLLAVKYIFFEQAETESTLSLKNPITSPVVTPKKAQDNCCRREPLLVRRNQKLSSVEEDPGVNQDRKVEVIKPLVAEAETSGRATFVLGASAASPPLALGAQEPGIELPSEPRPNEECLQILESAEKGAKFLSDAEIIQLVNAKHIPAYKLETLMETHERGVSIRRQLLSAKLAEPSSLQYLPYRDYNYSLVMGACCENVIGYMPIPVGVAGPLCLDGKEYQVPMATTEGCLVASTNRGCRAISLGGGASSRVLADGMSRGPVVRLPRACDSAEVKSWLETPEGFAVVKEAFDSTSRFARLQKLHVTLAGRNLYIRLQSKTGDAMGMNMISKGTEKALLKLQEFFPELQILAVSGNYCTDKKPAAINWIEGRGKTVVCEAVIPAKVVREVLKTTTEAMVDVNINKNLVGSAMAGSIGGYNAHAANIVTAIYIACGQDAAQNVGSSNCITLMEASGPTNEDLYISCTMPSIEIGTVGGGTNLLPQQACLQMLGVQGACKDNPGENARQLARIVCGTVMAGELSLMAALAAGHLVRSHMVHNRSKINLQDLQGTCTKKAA
Assay: HMGCoA reductase assay with rat liver microsomes (14C-HMGCoA)
Type: biochemical
Settings: 45 min at 37° C.
Excerpt: (See, e.g., J. of Lipid Research 1998; 39: 75-84; Analytical Biochemistry, 1991; 196: 211-214; RR740-01077 Pharmacology 8, Nov., 1982) Accordingly, such compounds and formulations comprising such compounds are useful for treating, controlling or preventing inter alia hypercholesterolemia, hyperlipidemia, hypertriglyceridemia or atherosclerosis.
Rat Liver Microsomal Isolation Procedure:
Male Charles River Sprague-Dawley rats were fed with 2.5% cholestyramine in rat chow diets for 5 days before sacrificing. Livers were minced and homogenized in a sucrose homogenizing solution in an ice bath 10 times. Homogenates were diluted into a final volume of 200 mL, and centrifuged 15 min. with a Sorvall Centrifuge at 5° C., 10,000 rpm (12,000×G). The upper fat layer was removed and the supernatant decanted into fresh tubes. This step was repeated one more time before transferring the supernatant into ultracentrifuge tubes and centrifuged at 36,000 rpm (105,000×G) for an hour at 5° C. The resulting supernatant was discarded and the pellet was added to total of 15 mL 0.2 M KH2PO4. Pellets were homogenized gently by hand about 10 times. Samples were pooled and diluted into total of 60 mL buffer. The protein concentration of the homogenate was determined by the […] using a BCA kit from Pierce Chemical Company. 1 mL aliquots of microsomes were kept frozen in liquid nitrogen.
HMGCoA (3-Hydroxy-3-methylglutaryl CoA) Reductase Assay:
[3-^14C]-HMGCoA (57.0 mCi/mmol) was purchased from Amersham Biosciences, UK. HMGCoA, mevalonolactone, NADPH were purchased from Sigma Chemical Co. AG 1-8X resin was purchased from Bio-Rad Laboratory.
One μL of dimethyl sulfoxide (DMSO) or 1 μL of DMSO containing a test compound at a concentration sufficient to give a final assay concentration of between 0.1 nM to 1 mM was placed into each well of a Corning 96 well plate. […] Scintillation cocktail (Ultima-Flo-M) was added into each well and plates counted on a Trilux Microbeta Counter. The IC50 values were calculated with GraphPad software (Prism). […]

IC50	Compound
4.1 nM	CC(C)n1c(CC[C@@H](O)C[C@@H](O)CC(=O)O)c(-c2ccc(F)cc2)c(-c2ccccc2)c1C(=O)Nc1ccc(F)cc1 [Example 6, (3R,5R)-7-[3-(4-Fluoro-phenyl)-5-(4-fluoro-phenylcarbamoyl)-1-isopropyl-4-phenyl-1H-pyrrol-2-yl]-3,5-dihydroxy-heptanoic Acid Sodium Salt]

Test system: rat hepatocytes
Assay: Sterol biosynthesis in rat hepatocytes (14C acetic acid labeling)
Type: cell-based
Settings: Hepatocyte, 14C cholesterol from 14C acetic acid, 4 hrs pre-incubation + 4 hrs labeling
Method: Protocol for Sterol Biosynthesis in Rat Hepatocytes:
Cell Culture, Compounds Treatment and Cell Labeling:
Frozen rat hepatocytes purchased from XenoTech(cat# N400572) were seeded on 6-well collagen I coated plates at a density of […]. The cells were grown in DMEM medium (Gibco, #11054-020) containing 10% FBS and 10 mM HEPES(Gibco # 15630-080) for 24 hrs. The cells were pre-incubated with compounds for 4 hrs and then labeled by incubating in medium containing 1 uCi/per ml of ^14C acetic acid for an additional 4 hrs. After labeling, the cells were washed twice with 5 mM MOPS solution containing 150 mM NaCl and 1 mM EDTA and collected in the lysis buffer containing 10% KOH and 80%(vol.) ethanol.
Cholesterol Extraction and Data Analysis:
In order to separate labeled cholesterol from labeled non-cholesterol lipids, the cells lysates were subject to saponification at 60° C. for 2 hrs. The lysates were then combined with 0.5 volume of H2O and 2 volumes of hexane, followed by 30 minutes of vigorous shaking. After the separation of two phases, the upper-phase solution was collected and combined with 5 volumes of scintillation cocktail. The amount of ^14C cholesterol was quantified by liquid scintillation counting. The IC50 values were calculated with GraphPad software (Prism 3.03).

Compound	IC50
CC(C)n1c(CC[C@@H](O)C[C@@H](O)CC(=O)O)c(-c2ccc(F)cc2)c(-c2ccccc2)c1C(=O)Nc1ccc(F)cc1 [Example 6, (3R,5R)-7-[3-(4-Fluoro-phenyl)-5-(4-fluoro-phenylcarbamoyl)-1-isopropyl-4-phenyl-1H-pyrrol-2-yl]-3,5-dihydroxy-heptanoic Acid Sodium Salt]	0.23 nM

Test system: not given
Assay: not given
Settings: not given

Compound	melting point
CC(C)n1c(CC[C@@H](O)C[C@@H](O)CC(=O)[O-])c(-c2ccc(F)cc2)c(-c2ccc(F)cc2)c1C(=O)Nc1ccccn1.[Na+] [Example 120, (3R,5R)-7-[3,4-Bis-(4-fluoro-phenyl)-1-isopropyl-5-(pyridin-2-ylcarbamoyl)-1H-pyrrol-2-yl]-3,5-dihydroxy-heptanoic Acid Sodium Salt]	217 to 219 °C (dec.)
Cc1cc(CNC(=O)c2c(-c3ccccc3)c(-c3ccc(F)cc3)c(/C=C/[C@@H](O)C[C@@H](O)CC(=O)[O-])n2C(C)C)no1.[Na+] [Example 79, trans-(3R,5 S)-7-{3-(4-fluoro-phenyl)-1-isopropyl-5-[(5-methyl-isoxazole-3-yl Methyl)-carbamoyl]-4-phenyl-1H-pyrrol-2-yl}-3,5-dihydroxy-hept-6-enoate Sodium Salt]	200 to 203 °C
CNC(=O)c1c(-c2ccccc2)c(-c2ccc(F)cc2)c(/C=C/[C@@H](O)C[C@@H](O)CC(=O)[O-])n1C(C)C.[Na+] [Example 157, (3R,5S)-7-[3-(4-Fluoro-phenyl)-1-isopropyl-5-methylcarbamoyl-4-phenyl-1H-pyrrol-2-yl]-3,5-dihydroxy-hept-6-enoic Acid Sodium Salt]	224 to 226 °C
CC(C)n1c(/C=C/[C@@H](O)C[C@@H](O)CC(=O)[O-])c(-c2ccc(F)cc2)c(-c2ccccc2)c1C(=O)Nc1ccccc1.[Na+] [Example 2, (3R,5S)-7-[3-(4-Fluoro-phenyl)-1-isopropyl-4-phenyl-5-phenylcarbamoyl-1H-pyrrol-2-yl]-3,5-dihydroxy-hept-6-enoic Acid Sodium Salt]	239 to 241 °C
COc1ccc([C@@H](C)NC(=O)c2c(-c3ccc(F)cc3)c(-c3ccc(F)cc3)c(CC[C@@H](O)C[C@@H](O)CC(=O)[O-])n2C(C)C)cc1.[Na+] [Example 154, (3R,5R)-7-{3,4-Bis-(4-fluoro-phenyl)-1-isopropyl-5-[(R)-1-(4-methoxy-phenyl)-ethylcarbamoyl]-1H-pyrrol-2-yl}-3,5-dihydroxy-heptanoic Acid Sodium Salt]	225 to 227 °C

The remaining lines, values ahead:

melting point	Compound
222 to 224 °C	CC(C)OC(=O)c1ccc(CNC(=O)c2c(-c3ccccc3)c(-c3ccc(F)cc3)c(/C=C/[C@@H](O)C[C@@H](O)CC(=O)[O-])n2C(C)C)cc1.[Na+] [Example 149, (3R,5S)-7-[3-(4-Fluoro-phenyl)-5-(4-isopropoxycarbonyl-benzylcarbamoyl)-1-isopropyl-4-phenyl-1H-pyrrol-2-yl]-3,5-dihydroxy-hept-6-enoic Acid Sodium Salt]
191 to 194 °C	CC(C)n1c(CC[C@@H](O)C[C@@H](O)CC(=O)[O-])c(-c2ccc(F)cc2)c(-c2ccc(F)cc2)c1C(=O)Nc1cccc(Cl)c1.[Na+] [Example 138, (3R,5R)-7-[5-(3-Chloro-phenylcarbamoyl)-3,4-bis-(4-fluoro-phenyl)-1-isopropyl-1H-pyrrol-2-yl]-3,5-dihydroxy-heptanoic Acid Sodium Salt]
55 to 57 °C	COC(=O)C[C@H]1C[C@@H](CCc2c(-c3ccc(F)cc3)c(-c3ccc(F)cc3)cn2C(C)C)OC(C)(C)O1 [Example 24, (4R,6R)-(6-{2-[3,4-Bis-(4-fluoro-phenyl)-1-isopropyl-1H-pyrrol-2-yl]-ethyl}-2,2-dimethyl-[1,3]dioxan-4-yl)-acetic Acid Methyl Ester]
222 to 223 °C	CC(C)n1c(CC[C@@H](O)C[C@@H](O)CC(=O)[O-])c(-c2ccc(F)cc2)c(-c2ccc(F)cc2)c1C(=O)Nc1ccccc1O.[Na+] [Example 134, (3R,5R)-7-[3,4-Bis-(4-fluoro-phenyl)-5-(2-hydroxy-phenylcarbamoyl)-1-isopropyl-1H-pyrrol-2-yl]-3,5-dihydroxy-heptanoic Acid Sodium Salt]
220 to 222 °C	CC(C)n1c(/C=C/[C@@H](O)C[C@@H](O)CC(=O)O)c(-c2ccc(F)cc2)c(-c2ccc(F)cc2)c1C(=O)Nc1ccc(CC(N)=O)cc1 (as salt: sodium) [Example 14, (3R,5S)-7-[5-(4-Carbamoylmethyl-phenylcarbamoyl)-3,4-bis-(4-fluoro-phenyl)-1-isopropyl-1H-pyrrol-2-yl]-3,5-dihydroxy-hept-6-enoic Acid Sodium Salt]
265 to 267 °C	CC(C)n1c(CC[C@@H](O)C[C@@H](O)CC(=O)[O-])c(-c2ccc(F)cc2)c(-c2ccccc2)c1C(=O)Nc1ccc(S(N)(=O)=O)cc1.[Na+] [Example 4, (3R,5R)-7-[3-(4-Fluoro-phenyl)-1-isopropyl-4-phenyl-5-(4-sulfamoyl-phenylcarbamoyl)-1H-pyrrol-2-yl]-3,5-dihydroxy-heptanoic Acid Sodium Salt]
